From patent US20030013690A1, “Increasing phosphorus uptake from the gut of dairy cows by supplementing 1alpha-hydroxylated vitamin D compounds” (priority 2001, published 2003)

Assays:
Assay type in all cases: in vivo
lactating dairy cows [1] = assay: Dairy cow efficacy trial: feed intake, fecal P excretion, P utilization
From the text: (§1) Eight multiparous lactating dairy cows (about 150 days in milk at start of the experiment) were blocked into two groups according to milk yield. Cows in each block were assigned randomly to four different treatments. The experimental design was a 4×4 Latin Square. Each period was four weeks in length. The first three weeks were used as an adaptation period, and measurements were taken during the last week of each period.
(§2) The four treatments were:
(§3) 1) High P diet. Dietary P at 0.47% (DM basis)
(§4) 2) Diet 1 plus 1-α-OHD3 (75 μg/cow/day)
(§5) 3) Low P diet. Dietary P at 0.35% (DM basis)
(§6) 4) Diet 3 plus 1-α-OHD3 (75 μg/cow/day).
The diets (Table 1) were fed ad libitum as a total mixed ration once daily. The cows were housed in individual tie stalls. Daily feed offered and refused was recorded for individual cows. Feed refusals were restricted to 10% of intake on an as-fed basis. Daily samples of silage and refusals were composited weekly for chemical analysis. Samples of individual feed ingredients were collected once weekly. The dry matter content of feed ingredients was determined by oven drying at 60° C. for 48 hr. Diet formulations were adjusted weekly, if necessary, to account for changes in dry matter content of diet ingredients. All of the feed ingredients were analyzed for chemical composition. Alfalfa and corn silage were analyzed weekly for neutral detergent fiber (NDF), acid detergent fiber (ADF), and crude protein (CP). High moisture ear corn (HMEC), soybean meal (SBM), roasted soybean meal (RSB), and blood meal (BM) were composited every four weeks (one sample per period) and analyzed for CP.
Feed DM digestibility was determined using Yb as an external marker. A Yb solution, prepared by dissolving 2.24 g of YbCl3 (1 g of Yb) in 30 ml of water was sprayed onto 500 g of alfalfa silage (DM basis). The Yb-marked alfalfa silage was mixed into the total mixed ration to give 40 mg of Yb/kg of dietary DM. The total mixed ration labeled with Yb was fed for nine days. During the last two days of Yb feeding (last two days of each period), eight fecal grab samples were collected from each cow at 7 am, 12 noon, 6 pm, and 11 pm on the first day and at 9 am, 3 pm, 9 pm, and 5 am on the second day. Fecal samples were dried at 60° C. for 72 h and ground through a 2-mm Wiley mill screen. Fecal samples were dry-ashed in duplicate (Combs and Satter, 1992). During the last four days of each period, feed refusals for each cow were collected and composited into one sample per cow per period. These samples were dry-ashed in the same way as feces, and analyzed for Yb. Concentrations of Yb (ppm) in feed, feed refusals, and fecal samples were determined by direct current plasma spectroscopy [(Combs and Satter, 1992); Spectra Metrics, Inc., subsidiary of Beckman Instruments, Inc., Andover, Mass.]. The DM digestibility (percentage) for individual cows was calculated as follows: DM digestibility (%)=(1-concentration of Yb in DM consumed/average concentration of Yb in each cow's fecal samples)100. Digestibility of dietary P in different treatments was calculated using P input-output data.

lactating dairy cows [2] = assay: Dairy cow efficacy trial: P and Ca concentrations in urine
From the text: as §1, §2, §3, §4, §5, §6
(§7) During the last two days of each period, six urine samples were collected at 8 am, 4 pm, and 11 pm on the first day and 12 noon, 8 pm, and 6 am on the second day. Urine samples were then composited for phosphorus, calcium, and creatinine analysis. Creatinine was measured to enable an estimate of urine output. Milk samples were obtained during four days of each period. The milk sample was split; one-half was mixed with a preservative, and the other half was refrigerated without a preservative. The samples with preservative were analyzed for milk composition by Wisconsin Ag Source Milk Analysis Laboratory (Menomonie, Wis.), and the samples without preservative were composited according to milk yield and analyzed for mineral composition in the Soil and Plant Analysis Laboratory, Department of Soil Science, University of Wisconsin-Madison.

lactating dairy cows [3] = assay: Dairy cow efficacy trial: P and Ca concentrations in blood serum
From the text: as §1, §2, §3, §4, §5, §6
(§8) Cows were weighed two days in a row before the trial started and two days in a row when it finished. Daily milk weights were recorded. All cows were injected with bovine somatotropin (Posilac®). Blood samples were collected on the last day of weeks 1, 2, and 3 of each period. During week 4, blood samples were obtained on each of the last three days. Blood was obtained 5 hours after feeding from the coccygeal vein or artery in a gel and clot co-activator vacutainer. Samples were centrifuged the next day to separate the serum. Inorganic phosphorus and calcium analyses were performed on serum samples by Marshfield Laboratories, Marshfield, Wis.

lactating dairy cows [4] = assay: Dairy cow efficacy trial: milk yield and milk composition
From the text: as §1, §2, §3, §4, §5, §6, §8, §7

[5] = treatment 2: high P diet (0.47% P) plus 75 μg/cow/day
[6] = treatment 4: low P diet (0.35% P) plus 75 μg/cow/day
[7] = both the high- and low-P treatments, highly significant

For C=C1/C(=C\C=C2/CCC[C@]3(C)[C@@H]([C@H](C)CCCC(C)C)CC[C@@H]23)C[C@@H](O)C[C@@H]1O [1-α-OHD3, 1α-hydroxyvitamin D3], the “Reduction in fecal P excretion due to supplementation” value (lactating dairy cows [1]; 75 μg/cow/day) was 14%, the “Reduction of phosphorus excretion in manure” value (lactating dairy cows [1]; both the high- and low-P treatments, 75 μg/cow/day) was “about 10 g per day” and the “Effect on fecal P excretion” value (lactating dairy cows [1]; daily inclusion of 75 μg in the cows' diets) was “reduced”. The “Effect on P uptake from the gut” value (lactating dairy cows [1]; evidenced by decreased fecal P and increased serum P) was “increased”, the “Fecal DM P” value (lactating dairy cows [1]; [5]) was 0.99% and the “Fecal P” value (lactating dairy cows [1]; [5]) was 71.3 g/day. The “Milk and Fecal P” value (lactating dairy cows [1]; [5]) was 109.5 g/day, the “Fecal DM P” value (lactating dairy cows [1]; [6]) was 0.77% and the “Fecal P” value (lactating dairy cows [1]; [6]) was 55.4 g/day. For the same compound, the “Milk and Fecal P” value (lactating dairy cows [1]; [6]) was 93.8 g/day, the “Effect on calcium excretion via urine” value (lactating dairy cows [2]; 75 μg/cow/day) was “increased” and the “Urinary P as share of dietary P intake” value (lactating dairy cows [2]; high-P treatment, at 5.15 mg P per dl of urine) was “about 2%”. For the same compound, the Urine calcium (lactating dairy cows [2]; [5]) was 12.03 mg/dL, the Urine phosphorus (lactating dairy cows [2]; [5]) was 5.15 mg/dL and the Urine calcium (lactating dairy cows [2]; [6]) was 15.46 mg/dL. The Urine phosphorus (lactating dairy cows [2]; [6]) was 0.40 mg/dL, the “Effect on concentration of Ca in blood serum” value (lactating dairy cows [3]; [7]) was “increase” and the “Effect on concentration of P in blood serum” value (lactating dairy cows [3]; [7]) was “increase”. For the same compound, the Blood serum calcium (lactating dairy cows [3]; [5]) was 10.32 mg/dL, the Blood serum phosphorus (lactating dairy cows [3]; [5]) was 8.77 mg/dL and the Blood serum calcium (lactating dairy cows [3]; [6]) was 10.14 mg/dL. The Blood serum phosphorus (lactating dairy cows [3]; [6]) was 7.63 mg/dL, the “Effect on milk production” value (lactating dairy cows [4]; supplementation of 75 μg) was “unaffected” and the Milk yield (lactating dairy cows [4]; [5]) was 36.9 kg/day. It also gave a Milk yield (lactating dairy cows [4]; [6]) of 37.6 kg/day.
